Assay results as given in paper PMC7154053, “Chemical, Metabolic, and Cellular Characterization of a FtsZ Inhibitor Effective Against Burkholderia cenocepacia” (Frontiers in Microbiology, 2020).
≈ marks a conversion by molar mass, not a printed value. Where two headings read alike, the source gives them in different places.

Key:
P. aeruginosa PAO1 = test: MIC, 2-fold microdilution, resazurin method; assay type: cell-based; conditions: Pseudomonas aeruginosa, PAO1
Experimental: (§1) Burkholderia cenocepacia strains, Escherichia coli ATCC 25922, Pseudomonas aeruginosa PAO1, and Staphylococcus aureus ATCC 25923 were grown in Luria-Bertani (LB) medium (Difco), if not differently specified, with shaking at 200 rpm, or on LB agar, at 37°C.
(§2) The microtiter plates were incubated at 37°C for 48 (for B. cenocepacia) or 24 h (for all the other strains) and growth was determined by the resazurin method (Martin et al., [2006]). A solution of resazurin sodium salt (Sigma Aldrich) was prepared at 0.01% in distilled water and filter-sterilized. Thirty microliter of resazurin solution were added to each well after 1 or 2 days of incubation at 37°C, and the microtiters were re-incubated at the same temperature for 4 h. The MIC was defined as the lowest concentration of the drug that prevented a change in color from blue to pink, which indicates bacterial growth.
(§3) Three independent biological replicates were used for each MIC determination.

E. coli ATCC 25922 = test: MIC, 2-fold microdilution, resazurin method; assay type: cell-based; conditions: Escherichia coli, ATCC25922
Experimental: as §1, §2, §3

B. cenocepacia J2315 = test: MIC, 2-fold microdilution, resazurin method; assay type: cell-based, Burkholderia cenocepacia; conditions: Burkholderia cenocepacia
Experimental: as §1, §2, §3

B. cenocepacia FCF22 [1] = test: MIC, 2-fold microdilution, resazurin method; assay type: cell-based, Burkholderia cenocepacia; conditions: Burkholderia cenocepacia; clinical isolate FCF22
Experimental: as §1, §2, §3

B. cenocepacia FCF19 [2] = test: MIC, 2-fold microdilution, resazurin method; assay type: cell-based, Burkholderia cenocepacia; conditions: Burkholderia cenocepacia; clinical isolate FCF19
Experimental: as §1, §2, §3

[3] = tested on: CF bronchial epithelial (CFBE41o-) cell line; set-up: method as in Hogan et al., 2018; Costabile et al., 2020; conditions: CFBE41o- cells; ref Hogan et al., 2018; Costabile et al., 2020; cited from earlier work
B. cenocepacia FCF22 [4] = test: Checkerboard assay with efflux pump inhibitor PaβN MC-207.110; assay type: cell-based, Burkholderia cenocepacia; conditions: Burkholderia cenocepacia, FCF22; read-out: MIC in the presence of MC-207.110, FCF22
Experimental: as §2, with “growth. […] Three independent biological replicates were used for each MIC determination.” for “growth.”

B. cenocepacia FCF19 [5] = test: as above; assay type: cell-based, Burkholderia cenocepacia; conditions: Burkholderia cenocepacia, FCF19; read-out: MIC in the presence of MC-207.110, FCF19
Experimental: as §2, with “growth. […] Three independent biological replicates were used for each MIC determination.” for “growth.”

PAO1-FtsZ = target: T1, PAO1-FtsZ (Pseudomonas aeruginosa, UniProt P47204); test: FtsZ GTPase activity assay (kinetics and inhibition); assay type: biochemical; conditions: read-out: IC50 toward PAO1-FtsZ
T1 construct: His-tag of pET-28a followed by PreScission site (His-tag inferred from the vector; the site is encoded in the forward primer) (N); made in house; host or cells: E. coli BL21(DE3)
Experimental: The gene ftsZ (BCAL3457) was amplified from B. cenocepacia FCF19 using the primers pet28presFtsZfor (5′-[…]-3′) and pet28ftsZrev (5′-[…]-3′). The gene ftsZ of P. aeruginosa was amplified from the genomic DNA using the primers ftsZPAOfor28a (5′-[…] 3′) and ftsZPAOrev28a (5′-[…]-3′). The PCR products were cloned into the pET-28a vector (Novagen) using the In-Fusion HD Cloning kit (TaKaRa), according to the manufacturer's instructions.
All the recombinant FtsZ proteins were expressed at 20°C overnight in E. coli BL21(DE3) cells, upon induction with 0.5 mM IPTG, and purified using the same protocol assessed for the wild-type B. cenocepacia FtsZ (Hogan et al., [2018]).
GTPase enzyme activity was determined using a pyruvate kinase/L-lactic dehydrogenase (PK/LDH) spectrophotometric coupled assay (Ingerman and Nunnari, [2005]). The assays were performed at 30°C, in a reaction mixture containing […] Hepes pH 7.5, 5 mM MgCl2, 5 mM KCl, 10 U PK/LDH, 0.25 mM NADH, 0.25 mM PEP, and 5–10 μM FtsZ, and initiated by the addition of 0.5 mM GTP. Alternatively, GTPase activity was determined by measuring the release of phosphate using the malachite green assay (Baykov et al., [1988]).
Steady-state kinetic analysis was performed by assaying the activity at different GTP concentrations and parameters determined by fitting the data to the Michaelis-Menten equation using Origin 8 software. […]

T1 sequence (P47204 2-316): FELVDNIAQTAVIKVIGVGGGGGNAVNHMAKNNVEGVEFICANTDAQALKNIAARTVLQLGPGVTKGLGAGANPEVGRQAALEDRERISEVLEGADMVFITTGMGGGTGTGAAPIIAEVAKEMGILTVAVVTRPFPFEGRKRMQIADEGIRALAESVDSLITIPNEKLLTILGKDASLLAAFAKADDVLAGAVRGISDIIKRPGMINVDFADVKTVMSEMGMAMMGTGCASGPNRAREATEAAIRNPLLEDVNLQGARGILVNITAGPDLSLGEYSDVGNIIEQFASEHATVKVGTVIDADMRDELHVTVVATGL

COC(=O)CSc1ccc2nsnc2c1[N+](=O)[O-] [C109, methyl [(4-nitro-2,1,3-benzothiadiazol-5-yl)thio]acetate]
MIC (P. aeruginosa PAO1; LB, 24 h, read-out: MIC P. aeruginosa PAO1): 128 µg/mL (≈ 449 µM) | MIC (P. aeruginosa PAO1; Supplementary Table 1, read-out: MIC (µg/ml) P. aeruginosa PAO1): 128 µg/mL (≈ 449 µM) | MIC (E. coli ATCC 25922; LB, 24 h, read-out: MIC E. coli 25922): 8 µg/mL (≈ 28 µM) | MIC (E. coli ATCC 25922; Supplementary Table 1, read-out: MIC (µg/ml) E. coli 25922): 8 µg/mL (≈ 28 µM) | MIC (B. cenocepacia J2315; J2315, read-out: MIC (µg/ml) B. cenocepacia J2315): 8 µg/mL (≈ 28 µM) | MIC (B. cenocepacia J2315; J2315, LB, 48 h, read-out: MIC B. cenocepacia J2315): 8 µg/mL (≈ 28 µM) | MIC (B. cenocepacia FCF22 [1]): 256 µg/mL (≈ 897 µM) | MIC (B. cenocepacia FCF19 [2]): 128 µg/mL (≈ 449 µM) | toxic concentration at 50% (TC50) [3]: about 75 μM | MIC (B. cenocepacia FCF22 [4]): 16 µg/mL | MIC (B. cenocepacia FCF19 [5]): 8 µg/mL | IC50 (PAO1-FtsZ): 3.5 ± 1.9 µM
